Results reported in ChEMBL document CHEMBL3885881, “DrugMatrix”.

Species: Rattus norvegicus
Test: DrugMatrix - Regimen: Daily Repeat
Type: toxicity, organism-based, Sprague-Dawley
Parameters: regimen Daily Repeat, gender Male, age 6-8 weeks
Details: in vivo, po, route oral GAVAGE, vehicle 100 % WATER; for ABSOLUTE BASOPHIL / ABSOLUTE EOSINOPHIL / ABSOLUTE LYMPHOCYTE / ABSOLUTE MONOCYTE / ABSOLUTE SEGMENTED NEUTROPHIL / BASOPHIL / EOSINOPHIL / ERYTHROCYTE COUNT / HEMATOCRIT / HEMOGLOBIN / LEUKOCYTE COUNT / LYMPHOCYTE / MEAN CORPUSCULAR HEMOGLOBIN / MEAN CORPUSCULAR HEMOGLOBIN CONCENTRATION / MEAN CORPUSCULAR VOLUME / MONOCYTE / NEUTROPHIL / NUCLEATED RED BLOOD CELLS / PLATELET COUNT: tissue Blood; for ALANINE AMINOTRANSFERASE / ALBUMIN / ALKALINE PHOSPHATASE / ASPARTATE AMINOTRANSFERASE / BLOOD UREA NITROGEN / CARBON DIOXIDE / CHLORIDE / CHOLESTEROL / CREATINE PHOSPHOKINASE / CREATININE / GLUCOSE / LACTATE DEHYDROGENASE / LIPASE / PHOSPHORUS / POTASSIUM / SODIUM / TOTAL BILIRUBIN / TOTAL PROTEIN / URIC ACID: tissue Plasma
[1] = 0 mg/kg, 72 h, dose level Control, time 3 day
[2] = 0 mg/kg, 120 h, dose level Control, time 5 day
[3] = 10 mg/kg, 72 h, dose level Low, time 3 day

CC(C)(C)NC[C@H](O)COc1nsnc1N1CCOCC1 [TIMOLOL]
ABSOLUTE BASOPHIL [1]: 0 CELLS/uL
ABSOLUTE EOSINOPHIL [1]: 0 CELLS/uL
ABSOLUTE LYMPHOCYTE [1]: 8482.5 CELLS/uL
ABSOLUTE MONOCYTE [1]: 63.83 CELLS/uL
ABSOLUTE SEGMENTED NEUTROPHIL [1]: 887 CELLS/uL
BASOPHIL [1]: 0%
EOSINOPHIL [1]: 0%
ERYTHROCYTE COUNT [1]: 5.49 x10E6/uL
HEMATOCRIT [1]: 34.5%
HEMOGLOBIN [1]: 13.33 G/DL
LEUKOCYTE COUNT [1]: 9.43 x10E3/uL
LYMPHOCYTE [1]: 90.17%
MEAN CORPUSCULAR HEMOGLOBIN [1]: 24.3 pg
MEAN CORPUSCULAR HEMOGLOBIN CONCENTRATION [1]: 38.63 G/DL
MEAN CORPUSCULAR VOLUME [1]: 62.88 fL
MONOCYTE [1]: 0.67%
NEUTROPHIL [1]: 9.17%
NUCLEATED RED BLOOD CELLS [1]: 0.67 /100WBC
PLATELET COUNT [1]: 1022.83 x10E3/uL
ALANINE AMINOTRANSFERASE [1]: 50.5 u/L
ALBUMIN [1]: 4.08 G/DL
ALKALINE PHOSPHATASE [1]: 368.33 u/L
ASPARTATE AMINOTRANSFERASE [1]: 87.5 u/L
BLOOD UREA NITROGEN [1]: 12.83 mg/dL
CARBON DIOXIDE [1]: 32.83 mmol/L
CHLORIDE [1]: 99.67 MEQ/L
CHOLESTEROL [1]: 79.67 mg/dL
CREATINE PHOSPHOKINASE [1]: 585 u/L
CREATININE [1]: 0.22 mg/dL
GLUCOSE [1]: 135.67 mg/dL
LACTATE DEHYDROGENASE [1]: 171 u/L
LIPASE [1]: 9.5 u/L
PHOSPHORUS [1]: 11.18 mg/dL
POTASSIUM [1]: 6.25 MEQ/L
SODIUM [1]: 144.87 MEQ/L
TOTAL BILIRUBIN [1]: 0.2 mg/dL
TOTAL PROTEIN [1]: 6.08 G/DL
URIC ACID [1]: 0.65 mg/dL
ABSOLUTE BASOPHIL [2]: 0 CELLS/uL
ABSOLUTE EOSINOPHIL [2]: 14.5 CELLS/uL
ABSOLUTE LYMPHOCYTE [2]: 7596.17 CELLS/uL
ABSOLUTE MONOCYTE [2]: 69.67 CELLS/uL
ABSOLUTE SEGMENTED NEUTROPHIL [2]: 503 CELLS/uL
BASOPHIL [2]: 0%
EOSINOPHIL [2]: 0.17%
ERYTHROCYTE COUNT [2]: 5.49 x10E6/uL
HEMATOCRIT [2]: 34.72%
HEMOGLOBIN [2]: 13.47 G/DL
LEUKOCYTE COUNT [2]: 8.18 x10E3/uL
LYMPHOCYTE [2]: 92.17%
MEAN CORPUSCULAR HEMOGLOBIN [2]: 24.57 pg
MEAN CORPUSCULAR HEMOGLOBIN CONCENTRATION [2]: 38.82 G/DL
MEAN CORPUSCULAR VOLUME [2]: 63.3 fL
MONOCYTE [2]: 1%
NEUTROPHIL [2]: 6.67%
NUCLEATED RED BLOOD CELLS [2]: 0 /100WBC
PLATELET COUNT [2]: 1141 x10E3/uL
ALANINE AMINOTRANSFERASE [2]: 48.33 u/L
ALBUMIN [2]: 4.07 G/DL
ALKALINE PHOSPHATASE [2]: 395.67 u/L
ASPARTATE AMINOTRANSFERASE [2]: 85.67 u/L
BLOOD UREA NITROGEN [2]: 15.83 mg/dL
CARBON DIOXIDE [2]: 31.33 mmol/L
CHLORIDE [2]: 100.83 MEQ/L
CHOLESTEROL [2]: 62.33 mg/dL
CREATINE PHOSPHOKINASE [2]: 248.33 u/L
CREATININE [2]: 0.2 mg/dL
GLUCOSE [2]: 135.67 mg/dL
LACTATE DEHYDROGENASE [2]: 141.33 u/L
LIPASE [2]: 9.5 u/L
PHOSPHORUS [2]: 10.73 mg/dL
POTASSIUM [2]: 6.07 MEQ/L
SODIUM [2]: 145.35 MEQ/L
TOTAL BILIRUBIN [2]: 0.22 mg/dL
TOTAL PROTEIN [2]: 6.12 G/DL
URIC ACID [2]: 0.63 mg/dL
ABSOLUTE BASOPHIL [3]: 0 CELLS/uL
ABSOLUTE EOSINOPHIL [3]: 0 CELLS/uL
ABSOLUTE LYMPHOCYTE [3]: 11252 CELLS/uL
ABSOLUTE MONOCYTE [3]: 71.67 CELLS/uL
ABSOLUTE SEGMENTED NEUTROPHIL [3]: 843 CELLS/uL
BASOPHIL [3]: 0%
EOSINOPHIL [3]: 0%
ERYTHROCYTE COUNT [3]: 5.24 x10E6/uL
HEMATOCRIT [3]: 32.97%
HEMOGLOBIN [3]: 12.83 G/DL
LEUKOCYTE COUNT [3]: 12.17 x10E3/uL
LYMPHOCYTE [3]: 92.33%
MEAN CORPUSCULAR HEMOGLOBIN [3]: 24.5 pg
MEAN CORPUSCULAR HEMOGLOBIN CONCENTRATION [3]: 38.93 G/DL
MEAN CORPUSCULAR VOLUME [3]: 62.97 fL
MONOCYTE [3]: 0.67%
NEUTROPHIL [3]: 7%
NUCLEATED RED BLOOD CELLS [3]: 0 /100WBC
PLATELET COUNT [3]: 939 x10E3/uL
ALANINE AMINOTRANSFERASE [3]: 57 u/L
ALBUMIN [3]: 4.03 G/DL
ALKALINE PHOSPHATASE [3]: 444 u/L
ASPARTATE AMINOTRANSFERASE [3]: 84.67 u/L
BLOOD UREA NITROGEN [3]: 14.67 mg/dL
CARBON DIOXIDE [3]: 33 mmol/L
CHLORIDE [3]: 100 MEQ/L
CHOLESTEROL [3]: 81.67 mg/dL
CREATINE PHOSPHOKINASE [3]: 370 u/L
CREATININE [3]: 0.37 mg/dL
GLUCOSE [3]: 138.33 mg/dL
LACTATE DEHYDROGENASE [3]: 111.33 u/L
LIPASE [3]: 10.67 u/L
PHOSPHORUS [3]: 11.57 mg/dL
POTASSIUM [3]: 6.01 MEQ/L
SODIUM [3]: 145.4 MEQ/L
TOTAL BILIRUBIN [3]: 0.17 mg/dL
TOTAL PROTEIN [3]: 5.77 G/DL
URIC ACID [3]: 0.6 mg/dL
